Laboratory results as given in patent US9606114B2, “Multivalent chelators containing a scaffold structure for modifying and organizing of target molecules” (JOHANN WOLFGANG GOETHE-UNIVERSITAT FRANKFURT AM MAIN, priority 2004, dated 2017).
Values belong to the substance of their own block, whether it stands above or below them.

Columns and labels:
ifnar2-H10 [1] = target: T1, ifnar2-H10 (Homo sapiens, UniProt P48551); assay: Immobilization of histidine-tagged protein on chelator-modified surface, detected by RIfS; type: binding; conditions: immobilized on tris-NTA modified surface
T1 construct: the extracellular domain of ifnar2 with a C-terminal deca-histidine-tag (ifnar2-H10)
T1 sequence (P48551 with tags, fused parts or gaps): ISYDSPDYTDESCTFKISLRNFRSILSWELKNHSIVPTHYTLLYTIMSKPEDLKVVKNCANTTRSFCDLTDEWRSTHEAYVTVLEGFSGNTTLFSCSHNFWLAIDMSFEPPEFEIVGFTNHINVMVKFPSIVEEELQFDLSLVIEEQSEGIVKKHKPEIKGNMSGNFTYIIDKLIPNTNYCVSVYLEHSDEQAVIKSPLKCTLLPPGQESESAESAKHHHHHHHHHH
Excerpt: The interaction of histidine-tagged proteins with the surfaces as produced in example 1 was characterized in detail by means of reflectometric interference spectroscopy (RIfS). Using this method, the binding of proteins to surfaces can be quantified in real time, as described in Piehler and Schreiber 2001 (Piehler J, Schreiber G. 2001. Fast transient cytokine-receptor interactions monitored in real time by reflectometric interference spectroscopy. Anal. Biochem. 289(2):173-186.)
The immobilization of the extracellular domain of ifnar2 with a C-terminal deca-histidine-tag (ifnar2-H10) to a tris-NTA modified surface (FIG. 7A) is shown in FIG. 7B. Whereas no binding was detectable before loading of the chelator coupled to the surface with Ni(II)-ions, thereafter an overall binding of about 1.5 ng/mm^2 protein was observed that also maintained stably immobilized during rinsing. Nevertheless, this protein could be removed quantitatively with 200 mM imidazole as competitor.
The functionality of the immobilized protein was examined through the binding of the ligand interferon α2 (IFNα2) (FIG. 8).

ifnar2-H10 [2] = target: T1, ifnar2-H10; assay: Lateral diffusion of protein anchored via bis-NTA lipid to solid-supported lipid double layer (FRAP); conditions: membrane-anchored via bis-NTA lipid in stearoyl-oleoyl-phosphatidylcholine double layer
Excerpt: For an attachment of proteins to lipid membranes, a lipid-analogue conjugate of bis-NTA was synthesized that is shown in FIG. 15A.
This lipid was incorporated into unilaminar vesicles of stearoyl-oleoyl-phosphatidylcholine that spontaneously form a fluid solid-supported lipid-double layer on glass surfaces (FIG. 15B). ifnar2-H10 could be specifically anchored at these membranes, whereby the binding activity was completely preserved (FIG. 15B). The lateral diffusion of the membrane-anchored ifnar2-H10 was analyzed through fluorescence-bleaching (fluorescence recovery after photobleaching, FRAP) (FIG. 16). Thereby, a diffusion constant of 1 μm^2/s was determined.

ifnar2-H10 [3] = assay: Fluorescence quantum yield of MCH-fluorophore conjugate after Ni(II) loading and protein binding; type: physicochemical; conditions: relative to unloaded conjugate
Method: (§1) For a non-covalent fluorescence labeling of histidine-tagged proteins in solution conjugates of tris-NTA with three different fluorophores were synthesized: Oregon Green 488, ATTO 565, FEW-S0387 (FIG. 17).
(§2) After loading with Ni(II)-ions ifnar2-H10 was added to these conjugates and the excess conjugate was separated through gel filtration.
(§3) The different states of the MCH-fluorophore-conjugate could be followed by fluorescence quantum yield. (FIG. 18B). After loading of the chelator-groups with Ni(II)-ions a marked reduction of the fluorescence to about 50% was observed, and after binding to the protein to about 40%.

ifnar2-H10 [4] = target: T1, ifnar2-H10; assay: as above; type: physicochemical
Method: as §1, §2, §3

Substance: ifnar2-H10: extracellular domain of ifnar2 (type I interferon-receptor 2) with a C-terminal deca-histidine-tag
immobilized ifnar2-H10 active (binding of ligand IFNα2) (ifnar2-H10 [1]): more than 90% | diffusion constant (ifnar2-H10 [2]): 1 μm^2/s

fluorescence after loading of the chelator-groups with Ni(II)-ions (ifnar2-H10 [3]): about 50% | fluorescence after binding to the protein (ifnar2-H10 [4]; Ni(II)-loaded conjugate bound to ifnar2-H10): about 40%
Substance: OG 488-Tris-NTA [tris-NTA-Oregon Green]

reduction of fluorescence compared with Oregon Green conjugate (ifnar2-H10 [4]; Ni(II) loading and protein binding): even more pronounced
Substance: ATTO 565-Tris-NTA
